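Interpolation was linear, between the two tested concentrations surrounding the appropriate level; five concentrations were tested over 48 hours in 96-well plates. GI50 = concentration required for 50% inhibition of growth.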 Activity calls are given as the source filed them. Cut-off read from the data, not from the text of the source: active = GI50 up to about 1.1 µM and inactive = higher.
Experiments:
Test in all cases: growth of human tumour cells (NCI), 48 h
HOP-62 = test system: HOP-62
HCC 2998 = test system: HCC 2998
UACC-62 = test system: UACC-62
U-251 = test system: U-251
MDA-N = test system: MDA-N
NCI-H226 = test system: NCI-H226
OVCAR-5 = test system: OVCAR-5
RPMI-8226 = test system: RPMI-8226
SNB-19 = test system: SNB-19
PC-3 = test system: PC-3
COLO 205 = test system: COLO 205
NCI-H23 = test system: NCI-H23
UACC-257 = test system: UACC-257
A549 = test system: A549
M14 = test system: M14
EKVX = test system: EKVX
A498 = test system: A498
SK-MEL-28 = test system: SK-MEL-28
OVCAR-8 = test system: OVCAR-8
HL-60 = test system: HL-60

CN(C)CCCNc1c2c(nc3ccc(Cl)cc13)CCCC2
GI50 (HOP-62): 12.9 µM (inactive)
GI50 (HCC 2998): 5.27 µM (inactive)
GI50 (UACC-62): 16.9 µM (inactive)
GI50 (U-251): 14.9 µM (inactive)
GI50 (MDA-N): 13.5 µM (inactive)
GI50 (NCI-H226): 22.3 µM (inactive)
GI50 (OVCAR-5): 20 µM (inactive)
GI50 (RPMI-8226): 7.59 µM (inactive)
GI50 (SNB-19): 19.1 µM (inactive)
GI50 (PC-3): 13.7 µM (inactive)
GI50 (COLO 205): 8.51 µM (inactive)
GI50 (NCI-H23): 15.8 µM (inactive)
GI50 (UACC-257): 16.3 µM (inactive)
GI50 (A549): 16.8 µM (inactive)
GI50 (M14): 13.8 µM (inactive)
GI50 (EKVX): 14.9 µM (inactive)
GI50 (A498): 18 µM (inactive)
GI50 (SK-MEL-28): 18.3 µM (inactive)
GI50 (OVCAR-8): 12.8 µM (inactive)
GI50 (HL-60): 15.9 µM (inactive)

C=C1CC(COc2ccc3c(C)cc(=O)oc3c2)(c2ccccc2)OC1=O (stereo not given)
GI50 (HOP-62): 13.1 µM (inactive)
GI50 (HCC 2998): 5.18 µM (inactive)
GI50 (UACC-62): 1.61 µM (inactive)
GI50 (U-251): 10.4 µM (inactive)
GI50 (MDA-N): 1.95 µM (inactive)
GI50 (NCI-H226): 6.11 µM (inactive)
GI50 (OVCAR-5): 12.1 µM (inactive)
GI50 (RPMI-8226): 0.292 µM (active)
GI50 (SNB-19): 15.2 µM (inactive)
GI50 (PC-3): 2.2 µM (inactive)
GI50 (COLO 205): 1.34 µM (inactive)
GI50 (NCI-H23): 2.34 µM (inactive)
GI50 (UACC-257): 1.83 µM (inactive)
GI50 (A549): 11.5 µM (inactive)
GI50 (M14): 1.33 µM (inactive)
GI50 (EKVX): 9.29 µM (inactive)
GI50 (A498): 2.64 µM (inactive)
GI50 (SK-MEL-28): 2.41 µM (inactive)
GI50 (OVCAR-8): 2.26 µM (inactive)
GI50 (HL-60): 0.263 µM (active)

CC(=O)O[C@@]12CO[C@@H]1C[C@@H](O)[C@@]1(C)C(=O)[C@H](O)C3=C(C)[C@@H](OC(=O)[C@H](O)[C@@H](NC(=O)c4ccccc4)c4ccccc4)C[C@@](O)([C@@H](OC(=O)c4ccccc4)C12)C3(C)C (stereo not given in full)
GI50 (HOP-62): 0.0893 µM (active)
GI50 (HCC 2998): 0.0212 µM (active)
GI50 (UACC-62): < 0.01 µM (active)
GI50 (U-251): 0.141 µM (active)
GI50 (MDA-N): < 0.01 µM (active)
GI50 (NCI-H226): 17.4 µM (inactive)
GI50 (OVCAR-5): 0.0832 µM (active)
GI50 (RPMI-8226): < 0.01 µM (active)
GI50 (SNB-19): 0.185 µM (active)
GI50 (PC-3): 0.016 µM (active)
GI50 (COLO 205): < 0.01 µM (active)
GI50 (NCI-H23): 0.0379 µM (active)
GI50 (UACC-257): 0.0217 µM (active)
GI50 (A549): 0.083 µM (active)
GI50 (M14): 0.0363 µM (active)
GI50 (EKVX): 4.81 µM (inactive)
GI50 (A498): 0.213 µM (active)
GI50 (SK-MEL-28): 0.748 µM (active)
GI50 (OVCAR-8): 0.0803 µM (active)
GI50 (HL-60): < 0.01 µM (active)

O=C(CC(C(=O)c1cccs1)c1cccs1)c1ccccc1Cl (stereo not given)
GI50 (HOP-62): > 100 µM (inactive)
GI50 (HCC 2998): > 100 µM (inactive)
GI50 (UACC-62): > 100 µM (inactive)
GI50 (U-251): > 100 µM (inactive)
GI50 (MDA-N): 97.7 µM (inactive)
GI50 (NCI-H226): > 100 µM (inactive)
GI50 (OVCAR-5): > 100 µM (inactive)
GI50 (RPMI-8226): 50.1 µM (inactive)
GI50 (SNB-19): > 100 µM (inactive)
GI50 (PC-3): 72.9 µM (inactive)
GI50 (COLO 205): 54 µM (inactive)
GI50 (NCI-H23): 33 µM (inactive)
GI50 (UACC-257): 74.3 µM (inactive)
GI50 (A549): > 100 µM (inactive)
GI50 (M14): > 100 µM (inactive)
GI50 (EKVX): 49.8 µM (inactive)
GI50 (A498): > 100 µM (inactive)
GI50 (SK-MEL-28): 81.7 µM (inactive)
GI50 (OVCAR-8): > 100 µM (inactive)
GI50 (HL-60): 76.4 µM (inactive)

C=CCc1cc(-c2cc(CC=C)c(O)c(CN(CCCl)CCCl)c2)cc(CN(CCCl)CCCl)c1O
GI50 (HOP-62): 14 µM (inactive)
GI50 (HCC 2998): 15.6 µM (inactive)
GI50 (UACC-62): 7.89 µM (inactive)
GI50 (U-251): 10.8 µM (inactive)
GI50 (MDA-N): 15.2 µM (inactive)
GI50 (NCI-H226): 15.6 µM (inactive)
GI50 (OVCAR-5): 18.3 µM (inactive)
GI50 (RPMI-8226): 12.2 µM (inactive)
GI50 (SNB-19): 19.1 µM (inactive)
GI50 (PC-3): 9.08 µM (inactive)
GI50 (COLO 205): 17.7 µM (inactive)
GI50 (NCI-H23): 6.89 µM (inactive)
GI50 (UACC-257): 16 µM (inactive)
GI50 (A549): 13.7 µM (inactive)
GI50 (M14): 15.4 µM (inactive)
GI50 (EKVX): 16 µM (inactive)
GI50 (A498): 20.7 µM (inactive)
GI50 (SK-MEL-28): 17.8 µM (inactive)
GI50 (OVCAR-8): 12.1 µM (inactive)
GI50 (HL-60): 3.09 µM (inactive)

C[C@]12CCC(=O)[C@@H](CCC3=CC(=O)C=CC3=O)[C@@H]1CCC2=O
GI50 (HOP-62): 39.2 µM (inactive)
GI50 (HCC 2998): 15.3 µM (inactive)
GI50 (UACC-62): 16.6 µM (inactive)
GI50 (U-251): 20.7 µM (inactive)
GI50 (MDA-N): 23.8 µM (inactive)
GI50 (NCI-H226): 20.7 µM (inactive)
GI50 (OVCAR-5): 41.5 µM (inactive)
GI50 (RPMI-8226): 1.6 µM (inactive)
GI50 (SNB-19): 41.5 µM (inactive)
GI50 (PC-3): 12.9 µM (inactive)
GI50 (COLO 205): 13 µM (inactive)
GI50 (NCI-H23): 12.5 µM (inactive)
GI50 (UACC-257): 17.8 µM (inactive)
GI50 (A549): 18.8 µM (inactive)
GI50 (M14): 17.8 µM (inactive)
GI50 (EKVX): 18.4 µM (inactive)
GI50 (A498): 17.5 µM (inactive)
GI50 (SK-MEL-28): 13.2 µM (inactive)
GI50 (OVCAR-8): 16.1 µM (inactive)
GI50 (HL-60): 2.7 µM (inactive)

COC(=O)C(Cc1ccccc1)NC(=O)c1ccc(CNC(=S)NCc2cccc(CNC(=S)NCc3ccccc3)c2)cc1 (stereo not given)
GI50 (HOP-62): 28.9 µM (inactive)
GI50 (HCC 2998): > 35 µM (inactive)
GI50 (UACC-62): > 34.6 µM (inactive)
GI50 (U-251): > 33.5 µM (inactive)
GI50 (MDA-N): > 32.5 µM (inactive)
GI50 (NCI-H226): > 34.1 µM (inactive)
GI50 (OVCAR-5): > 34.3 µM (inactive)
GI50 (RPMI-8226): > 29.1 µM (inactive)
GI50 (SNB-19): > 33.3 µM (inactive)
GI50 (PC-3): > 32 µM (inactive)
GI50 (COLO 205): > 32.1 µM (inactive)
GI50 (NCI-H23): > 35.4 µM (inactive)
GI50 (UACC-257): > 35.8 µM (inactive)
GI50 (A549): > 34.5 µM (inactive)
GI50 (M14): > 36 µM (inactive)
GI50 (EKVX): > 32.2 µM (inactive)
GI50 (A498): > 62.5 µM (inactive)
GI50 (SK-MEL-28): > 34 µM (inactive)
GI50 (OVCAR-8): > 31.7 µM (inactive)
GI50 (HL-60): > 62.5 µM (inactive)

CC(OP(=O)(O)O)C(N)C(=O)O (stereo not given)
GI50 (HOP-62): > 100 µM (inactive)
GI50 (HCC 2998): > 100 µM (inactive)
GI50 (UACC-62): > 100 µM (inactive)
GI50 (U-251): > 100 µM (inactive)
GI50 (MDA-N): > 100 µM (inactive)
GI50 (NCI-H226): > 100 µM (inactive)
GI50 (OVCAR-5): > 100 µM (inactive)
GI50 (RPMI-8226): > 100 µM (inactive)
GI50 (SNB-19): > 100 µM (inactive)
GI50 (PC-3): > 100 µM (inactive)
GI50 (COLO 205): > 100 µM (inactive)
GI50 (NCI-H23): > 100 µM (inactive)
GI50 (UACC-257): > 100 µM (inactive)
GI50 (A549): > 100 µM (inactive)
GI50 (M14): > 100 µM (inactive)
GI50 (EKVX): > 100 µM (inactive)
GI50 (A498): > 100 µM (inactive)
GI50 (SK-MEL-28): > 100 µM (inactive)
GI50 (OVCAR-8): > 100 µM (inactive)
GI50 (HL-60): > 100 µM (inactive)

Reference: ChEMBL document CHEMBL1201862, “PubChem BioAssay data set” (2004)
